Like-named read-outs stand apart in the source and are kept apart here.
Legend:
SH-SY5Y cells = assay: Cell proliferation (anti-proliferation) assay, MTS; type: cell-based, human; conditions: for GI50 / IC50: Homo sapiens; for GI50: SH-SY5Y neuroblastoma cell line, 72 h, mean ± SD (n = 4); for IC50: read-out: anti-proliferative activity IC50 against SH-SY5Y cell line
Method: SH-SY5Y cells were grown in DMEM with L-glutamin supplemented with streptomycin ([…]), penicillin (100 units/mL), and 10% fetal bovine serum (FBS). Cells were grown to confluence in a humidified atmosphere (37 °C, 5% CO2).
SH-SY5Y cells (1.5 × 10^3 cells/well) were seeded in a clear 96-well plate, the medium volume was brought to 100 µL, and the cells were allowed to attach overnight. The next day, various concentrations of compounds or DMSO were added to the wells. Cells were then incubated at 37 °C for 24, 48 and 72 h. Cell viability was determined using the Promega Cell Titer 96 Aqueous One Solution cell proliferation assay. Absorbance at 490 nm was read on Tecan Infinite F200 Pro plate reader, and values were expressed as percent of absorbance from cells incubated in DMSO alone.

PAMPA-BBB assay = type: in vitro ADME; conditions: for Papp at 4 h, 25 μM: PAMPA, read-out: Pe
Method: BBB-PAMPA was conducted by manufacturer’s instruction (pION Inc, MA, USA). […] Transmembrane side to donor part was coated with BBB lipid solution and add 200 μL acceptor buffer in upper part of PAMPA sandwich plate.

[1] = In vivo brain pharmacokinetic study; conditions: ICR male mice, IV, 2 mg/kg
Method: The study was approved by the Institutional Animal Care and Use of Committee of Daegu-Gyeongbuk Medical Innovation Foundation (DGMIF) and performed in accordance with protocols approved by the Institutional Animal Care and Use of Committee. […] Brain and plasma samples were collected at 0.5 and 1 h time points. Brain samples were homogenized at a 1:4 ratio of sample weight (g) to PBS volume (mL). Aliquots (20 μL) of brain homogenate were mixed with 180 μL of acetonitrile, vortexed and centrifuged at 15,000 rpm for 5 minutes at 4 °C. The resulting supernatants were used for LC-MS/MS analysis. Mice plasma samples were collected at 0.5 and 1 h time points. 180 μL of acetonitrile was added to 20 μL of plasma samples, vortexed and centrifuged at 15,000 rpm for 5 minutes at 4 °C.

Ac-α-tubulin = assay: Western blot of acetylation status in SH-SY5Y cells; type: cell-based, human; conditions: 24 h, 1 μM
Method: Cells were seeded in 100 mm culture dishes (1 × 10^6 cells/dish), and allowed to attach overnight. Inhibitors were added at the concentrations as indicated and the cells were incubated for an additional 24 hours. For comparison, cells were also incubated with DMSO (0.5%) for 24 hours. Cells were harvested in ice-cold lysis buffer (23 mM Tris-HCl pH 7.6, 130 mM NaCl, 1% NP-40, 1% sodium deoxycholate, 0.1% SDS), and 30 µg of lysate per lane was separated by SDS-PAGE and followed by transferring to a PVDF membrane (Bio-Rad). The membrane was blocked with 5% skim milk in TBST, and then incubated with the corresponding antibody (Ac-α-tubulin, α-tubulin, Ac-Histone H3, Histone H3 or β-actin). After binding of an appropriate secondary antibody coupled to horseradish peroxidase, proteins were visualized by ECL chemiluminescence according to the instructions of the manufacturer (GE healthcare, USA).

[2] = 25 μM, pH 7.4, 4 h, 25 °C, mean ± SD, three independent experiments

`O=C(NO)c1ccc(-c2nc3ccccc3[nH]2)cc1` [Compound 5] showed a GI50 (SH-SY5Y cells) of 60 ± 1.5 µM and an IC50 (SH-SY5Y cells; SH-SY5Y, Table 1 values IC50) of 60 µM.

`Cn1c(-c2ccc(C(=O)NO)cc2)nc2ccccc21` [Compound 6a] showed a GI50 (SH-SY5Y cells) of 58.3 ± 10.8 µM.

Work on `CCn1c(-c2ccc(C(=O)NO)cc2)nc2ccccc21` [Compound 6b] yielded a GI50 (SH-SY5Y cells) of 38.1 ± 0.2 µM.

For `CCCn1c(-c2ccc(C(=O)NO)cc2)nc2ccccc21` [Compound 6c], the GI50 (SH-SY5Y cells) was 54.7 ± 0.95 µM.

In the case of `CCCCn1c(-c2ccc(C(=O)NO)cc2)nc2ccccc21` [Compound 6d], the GI50 (SH-SY5Y cells) is reported as 26.8 ± 1.35 µM, the IC50 (SH-SY5Y cells; SH-SY5Y, Table 1 values IC50) is reported as 26.8 µM and the “fold increase in potency from non-substituted analogue 5” value (SH-SY5Y cells; SH-SY5Y) is reported as ~2 fold.

With `O=C(NO)c1ccc(-c2nc3ccccc3o2)cc1` [Compound 9a] the GI50 (SH-SY5Y cells) was 25.7 ± 0.05 µM, the IC50 (SH-SY5Y cells; SH-SY5Y, Table 1 values IC50) was 25.7 µM and the “fold less potent anti-proliferative activity than compound 9b” value (SH-SY5Y cells; SH-SY5Y) was 12 fold.

For `O=C(NO)c1cccc(-c2nc3ccccc3[nH]2)c1` [Compound 13], the GI50 (SH-SY5Y cells) was > 100 µM.

For `Cn1c(-c2cccc(C(=O)NO)c2)nc2ccccc21` [Compound 14a], the GI50 (SH-SY5Y cells) was > 100 µM.

In the case of `CCn1c(-c2cccc(C(=O)NO)c2)nc2ccccc21` [Compound 14b], the GI50 (SH-SY5Y cells) is reported as 28.2 ± 0.75 µM.

`CCCn1c(-c2cccc(C(=O)NO)c2)nc2ccccc21` [Compound 14c] gave a GI50 (SH-SY5Y cells) of 34.6 ± 0.6 µM.

In the case of `CCCCn1c(-c2cccc(C(=O)NO)c2)nc2ccccc21` [Compound 14d], the GI50 (SH-SY5Y cells) is reported as 20.7 ± 1 µM.

`O=C(NO)c1cccc(-c2nc3ccccc3o2)c1` [Compound 17a] showed a GI50 (SH-SY5Y cells) of 17.5 ± 0.35 µM.

`O=C(NO)c1cccc(-c2nc3ccccc3s2)c1` [Compound 17b] gave a GI50 (SH-SY5Y cells) of 21.4 ± 1.65 µM.

With `CC(=O)[C@H]1CC[C@H]2[C@@H]3CCC4=CC(=O)CC[C@]4(C)[C@H]3CC[C@]12C` [Progesterone] the “CNS +/− classification” value (PAMPA-BBB assay; PAMPA-BBB) was “CNS + (CNS + indicates (Pe > 10))” and the Papp at 4 h, 25 μM (PAMPA-BBB assay; [2]) was 35.52 ± 0.33 ×10⁻⁶ cm/s.

For `O=C(CCCCCCC(=O)Nc1ccccc1)NO` [SAHA, suberoylanilide hydroxamic acid, reference compound], the “Brain concentration (ng/mL) 0.5 h” value ([1]; 0.5 h, n = 4) was 14.5 ± 2.8 ng/mL, the “Brain concentration (ng/mL) 1 h” value ([1]; 1 h, n = 4) was “BQL” and the Kp at 0.5 h ([1]; mouse, brain/plasma, 0.5 h, read-out: Brain/plasma ratio 0.5 h) was 0.4. The concentration at 0.5 h ([1]; mouse, brain, 0.5 h, n = 4, read-out: Brain concentration (ng/mL) 0.5 h) was 14.5 ng/mL, the concentration at 0.5 h ([1]; mouse, plasma, 0.5 h, n = 4, read-out: Plasma concentration (ng/mL) 0.5 h) was 39.2 ± 11.5 ng/mL and the concentration at 1 h ([1]; mouse, plasma, 1 h, n = 4, read-out: Plasma concentration (ng/mL) 1 h) was 4.5 ± 2.7 ng/mL. For the same molecule, the “Pe (10^−6 cm/s)” value (PAMPA-BBB assay; [2]) was 2.77 10^−6 cm/s, the Papp at 4 h, 25 μM (PAMPA-BBB assay; [2]) was 2.77 ± 0.05 ×10⁻⁶ cm/s and the “acetylation of α-tubulin at 1 μM, SAHA versus 9b” value (Ac-α-tubulin) was “induced more acetylation of α-tubulin than compound 9b”. For the same molecule, the IC50 (SH-SY5Y cells; SH-SY5Y) was 2.9 µM and the GI50 (SH-SY5Y cells) was 2.9 ± 0.28 µM.

Reference: PMC6742641, “Design, synthesis and biological evaluation of a series of CNS penetrant HDAC inhibitors structurally derived from amyloid-β probes” (Scientific Reports, 2019)
